System: TNFα release from human peripheral blood mononuclear cells
Test: TNFα screen
Assay type: cell-based
Conditions: LPS-stimulated human peripheral blood mononuclear cells, 18 hours incubation, TNFα in supernatant by ELISA; read-out: TNF IC50
Protocol: Venous blood is collected from healthy volunteers and the mononuclear cells purified by centrifugation through Histopaque (Ficoll) cushions. TNFα production from these cells is stimulated by addition of lipopolysaccharide. After 18 hours incubation in the presence of LPS, the cell supernatant is removed and the concentration of TNFα in the supernatant determined by ELISA.

SMILES	IC50
CCc1cc(-n2nc(C(C)(C)C)cc2NC(=O)NCc2ccccc2Sc2ccc3nnc(C(C)C)n3c2)ccc1O [Example 74]	4 nM
CC(C)(C)c1cc(NC(=O)NCc2ccccc2Sc2ccc3nnc(-c4ccccc4F)n3c2)n(-c2ccc(OCCO)cc2)n1 [Example 141]	1.4 nM
CSCC(C)(C)c1cc(NC(=O)NCc2ccccc2Sc2ccc3nnc(-c4ccccc4O)n3c2)n(-c2ccccc2)n1 [Example 60]	1.4 nM
CC(C)c1nnc2ccc(Sc3ccccc3CNC(=O)Nc3cc(C(C)(C)C)nn3-c3ccccn3)cn12 [Example 180]	21 nM
CCC(C)(C)c1cc(NC(=O)NCc2ccccc2Sc2ccc3nnc(-c4ccccc4O)n3c2)n(-c2cccnc2)n1 [Example 182]	0.7 nM
CSC(C)(C)c1cc(NC(=O)NCc2ccccc2Sc2ccc3nnc(-c4cccc(Cl)c4O)n3c2)n(-c2cccc(C)c2)n1 [Example 152]	4.9 nM
COc1ccccc1-c1nnc2ccc(Sc3ccccc3CNC(=O)Nc3cc(C(C)(C)SC)nn3-c3ccc(O)cc3)cn12 [Example 140]	1.8 nM
CC(C)c1ccccc1-c1nnc2ccc(Sc3ccccc3CNC(=O)Nc3cc(C(C)(C)C)nn3-c3ccc(O)cc3)cn12 [Example 144]	1.2 nM
CC(C)c1nnc2ccc(Sc3ccccc3CNC(=O)Nc3cc(C(C)(C)C)nn3-c3ccc(O)c(Cl)c3)cn12 [Example 73]	0.9 nM
CSC(C)(C)c1cc(NC(=O)NCc2ccccc2Sc2ccc3nnc(-c4ccc(C)cc4O)n3c2)n(-c2cccc(C)c2)n1 [Example 151]	1.4 nM
CSCC(C)(C)c1cc(NC(=O)NCc2ccccc2Sc2ccc3nnc(-c4ccccc4O)n3c2)n(-c2ccc(F)c(F)c2)n1 [Example 64]	0.9 nM
Cc1ccc(-n2nc(C(C)(C)C)cc2NC(=O)NCc2ccccc2Sc2ccc3nnc(-c4ccccc4OCc4ccccc4)n3c2)cc1 [Example 116]	3.2 nM
Cc1cccc(-n2nc(C(C)(C)C)cc2NC(=O)NCc2ccccc2Sc2ccc3nnc(-c4cc(Cl)ccc4O)n3c2)c1 [Example 58]	1.6 nM
CC(C)c1nnc2ccc(Sc3ccccc3CNC(=O)Nc3cc(C(C)(C)C)nn3-c3cccc4cnccc34)cn12 [Example 181]	2.7 nM
COc1ccccc1-c1nnc2ccc(Sc3ccccc3CNC(=O)Nc3cc(C(C)(C)C)nn3-c3ccc(O)cc3)cn12 [Example 143]	1.2 nM
Cc1cc(OCc2ccccc2)cc(-n2nc(C(C)(C)C)cc2NC(=O)NCc2ccccc2Sc2ccc3nnc(C(C)C)n3c2)c1 [Example 124]	4.6 nM
CC(C)(C)c1cc(NC(=O)NCc2ccccc2Sc2ccc3nnc(-c4ccccc4O)n3c2)n(-c2cccc(C#N)c2)n1 [Example 51]	0.7 nM
Cc1cc(O)cc(-n2nc(C(C)(C)C)cc2NC(=O)NCc2ccccc2Sc2ccc3nnc(C(C)C)n3c2)c1 [Example 57]	1.2 nM
CC(C)(C)c1cc(NC(=O)NCc2ccccc2Sc2ccc3nnc(-c4ccc(O)cc4Cl)n3c2)n(-c2ccc(F)c(F)c2)n1 [Example 77]	2.7 nM
COc1ccccc1-c1nnc2ccc(Sc3ccccc3CNC(=O)Nc3cc(C(C)(C)C)nn3-c3cccc(O)c3)cn12 [Example 145]	0.9 nM
CSC(C)(C)c1cc(NC(=O)NCc2ccccc2Sc2ccc3nnc(-c4ccccc4C(C)C)n3c2)n(-c2ccc(O)cc2)n1 [Example 142]	2.2 nM
CC(C)c1ccccc1-c1nnc2ccc(Sc3ccccc3CNC(=O)Nc3cc(C(C)(C)C)nn3-c3ccc(OCCO)cc3)cn12 [Example 139]	3.2 nM
CC(C)c1nnc2ccc(Sc3ccccc3CNC(=O)Nc3cc(C(C)(C)C)nn3-c3ccc(Cl)c(O)c3)cn12 [Example 76]	0.8 nM
CSCC(C)(C)c1cc(NC(=O)NCc2ccccc2Sc2ccc3nnc(-c4ccccc4O)n3c2)n(-c2cccc(F)c2)n1 [Example 63]	1.4 nM
CNC(=O)c1ccc(-n2nc(C(C)(C)C)cc2NC(=O)NCc2ccccc2Sc2ccc3nnc(C(C)C)n3c2)cc1 [Example 118]	15.7 nM
CSCC(C)(C)c1cc(NC(=O)NCc2ccccc2Sc2ccc3nnc(-c4ccccc4O)n3c2)n(-c2cccc(OCCO)c2)n1 [Example 59]	1.3 nM
CC(C)(C)c1cc(NC(=O)NCc2ccccc2Sc2ccc3nnc(-c4ccccc4Cl)n3c2)n(-c2cccc(O)c2)n1 [Example 54]	0.7 nM

Same assay, conditions: PBMC; LPS-stimulated human peripheral blood mononuclear cells, 18 hours incubation, TNFα in supernatant by ELISA; read-out: TNF IC50

SMILES	IC50
COc1ccc(-n2nc(C(C)(C)C)cc2NC(=O)NCc2ccccc2Sc2ccc3nnc(C(C)C)n3c2)cc1Cl [Example 33, N-[3-tert-Butyl-1-(3-chloro-4-methoxyphenyl)-1H-pyrazol-5-yl]-N′-{2-[(3-isopropyl[1,2,4]triazolo[4,3-a]pyridin-6-yl)thio]-benzyl}urea]	2 nM
CSC(C)(C)c1cc(NC(=O)NCc2ccccc2Sc2ccc3nnc(-c4cc(Cl)ccc4O)n3c2)n(-c2ccc(C)cc2)n1 [Example 87, N-(2-{[3-(5-Chloro-2-hydroxyphenyl)[1,2,4]triazolo[4,3-a]pyridin-6-yl]thio}benzyl)-N′-[3-[1-methyl-1-(methylthio)ethyl]-1-(4-methylphenyl)-1H-pyrazol-5-yl]urea]	0.6 nM
CSC(C)(C)c1cc(NC(=O)NCc2ccccc2Sc2ccc3nnc(-c4ccccc4O)n3c2)n(-c2ccc(F)cc2)n1 [Example 94, N-{1-(4-Fluorophenyl)-3-[1-methyl-1-(methylthio)ethyl]-1H-pyrazol-5-yl}-N′-(2-{[3-(2-hydroxyphenyl)[1,2,4]triazolo[4,3-a]pyridin-6-yl]thio}benzyl)urea]	0.9 nM
CC(C)c1ccccc1-c1nnc2ccc(Sc3ccccc3CNC(=O)Nc3cc(C(C)(C)C)nn3-c3cccc(OCCO)c3)cn12 [Example 44, N-{3-tert-Butyl-1-[3-(2-hydroxyethoxy)phenyl]-1H-pyrazol-5-yl}-N′-(2-{[3-(2-isopropylphenyl)[1,2,4]triazolo[4,3-a]pyridin-6-yl]thio}benzyl)urea]	1.1 nM
Cc1ccccc1-c1nnc2ccc(Sc3ccccc3CNC(=O)Nc3cc(C(C)(C)C)nn3-c3cccc(OCCO)c3)cn12 [Example 105, N-{3-tert-Butyl-1-[3-(2-hydroxyethoxy)phenyl]-1H-pyrazol-5-yl}-N′-(2-{[3-(2-methylphenyl)[1,2,4]triazolo[4,3-a]pyridin-6-yl]thio}benzyl)urea]	0.6 nM
CCc1ccccc1-c1nnc2ccc(Sc3ccccc3CNC(=O)Nc3cc(C(C)(C)SC)nn3-c3cccc(OCCO)c3)cn12 [Example 102, N-(2-{[3-(2-Ethylphenyl)[1,2,4]triazolo[4,3-a]pyridin-6-yl]thio}benzyl)-N′-{1-[3-(2-hydroxyethoxy)phenyl]-3-[1-methyl-1-(methylthio)ethyl]-1H-pyrazol-5-yl}urea]	1.7 nM
COc1cccc(-n2nc(C(C)(C)C)cc2NC(=O)NCc2ccccc2Sc2ccc3nnc(-c4ccccc4O)n3c2)c1 [Example 98, N-[3-tert-Butyl-1-(3-methoxyphenyl)-1H-pyrazol-5-yl]-N′-(2-{[3-(2-hydroxyphenyl)[1,2,4]triazolo[4,3-a]pyridin-6-yl]thio}benzyl)urea]	0.4 nM
CSc1ccc(-c2nnc3ccc(Sc4ccccc4CNC(=O)Nc4cc(C(C)(C)C)nn4-c4cccc(O)c4)cn23)cc1 [Example 114, N-[3-tert-Butyl-1-(3-hydroxyphenyl)-1H-pyrazol-5-yl]-N′-[2-({3-[4-(methylthio)phenyl][1,2,4]triazolo[4,3-a]pyridin-6-yl}thio)benzyl]urea]	3.6 nM
CC(C)c1nnc2ccc(Sc3ccccc3CNC(=O)Nc3cc(C(C)(C)C)nn3-c3cccnc3)cn12 [Example 34, N-(3-tert-Butyl-1-pyridin-3-yl-1H-pyrazol-5-yl)-N′-{2-[(3-isopropyl[1,2,4]triazolo[4,3-a]pyridin-6-yl)thio]benzyl}-urea]	1.3 nM
CC(C)(C)c1cc(NC(=O)NCc2ccccc2Sc2ccc3nnc(-c4ccccc4O)n3c2)n(-c2ccc(F)cc2)n1 [Example 46, N-[3-tert-Butyl-1-(4-fluorophenyl)-1H-pyrazol-5-yl]-N′-(2-{[3-(2-hydroxyphenyl)[1,2,4]triazolo[4,3-a]pyridin-6-yl]thio}benzyl)urea]	0.8 nM
COc1ccc(-n2nc(C(C)(C)C)cc2NC(=O)NCc2ccccc2Sc2ccc3nnc(-c4ccccc4O)n3c2)cc1 [Example 97, N-[3-tert-Butyl-1-(4-methoxyphenyl)-1H-pyrazol-5-yl]-N′-(2-{[3-(2-hydroxyphenyl)[1,2,4]triazolo[4,3-a]pyridin-6-yl]thio}benzyl)urea]	0.6 nM
CSC(C)(C)c1cc(NC(=O)NCc2ccccc2Sc2ccc3nnc(-c4ccccc4F)n3c2)n(-c2ccc(O)cc2)n1 [Example 109, N-(2-{[3-(2-Fluorophenyl)[1,2,4]triazolo[4,3-a]pyridin-6-yl]thio}benzyl)-N′-{1-(4-hydroxyphenyl)-3-[1-methyl-1-(methylthio)ethyl]-1H-pyrazol-5-yl}urea]	1.2 nM
CSC(C)(C)c1cc(NC(=O)NCc2ccccc2Sc2ccc3nnc(-c4cc(Cl)ccc4O)n3c2)n(-c2cccc(C)c2)n1 [Example 86, N-(2-{[3-(5-Chloro-2-hydroxyphenyl)[1,2,4]triazolo[4,3-a]pyridin-6-yl]thio}benzyl)-N′-[3-[1-methyl-1-(methylthio)ethyl]-1-(3-methylphenyl)-1H-pyrazol-5-yl]urea]	0.8 nM
Cc1ccc(-n2nc(C(C)(C)C)cc2NC(=O)NCc2ccccc2Sc2ccc3nnc(-c4cccc(O)c4Cl)n3c2)cc1 [Example 36, N-[3-tert-Butyl-1-(4-methylphenyl)-1H-pyrazol-5-yl]-N′-(2-{[3-(2-chloro-3-hydroxyphenyl)[1,2,4]triazolo[4,3-a]pyridin-6-yl]thio}benzyl)urea]	4.8 nM
CC(C)(C)c1cc(NC(=O)NCc2ccccc2Sc2ccc3nnc(-c4ccccc4O)n3c2)n(-c2cccnc2)n1 [Example 70, N-(3-tert-Butyl-1-pyridin-3-yl-1H-pyrazol-5-yl)-N′-(2-{[3-(2-hydroxyphenyl)[1,2,4]triazolo[4,3-a]pyridin-6-yl]thio}benzyl)urea]	0.9 nM
